Experimental data reported in patent publication US20260262643A1, “HERBICIDAL BENZOXAZINES” (FMC CORPORATION, priority 2022, published 2026).

Tests used:
[1] = tested on: barnyardgrass; assay: Test C preemergence; assay type: in vivo, Echinochloa crusgalli; conditions: for Barnyardgrass plant response rating: preemergence; for Plant response rating, Barnyardgrass: Preemergence
Summary of the method: (§1)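 Test material, in non-phytotoxic solvent with surfactant, was sprayed on the soil directly after seeding (preemergence) or on young plants of 2–10 cm with one to two leaves (postemergence). Greenhouse, 10 days; 0–100 visual control scale.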

[2] = tested on: blackgrass; assay: Test C preemergence; assay type: in vivo, Alopecurus myosuroides; conditions: for Blackgrass plant response rating: preemergence; for Plant response rating, Blackgrass: Preemergence
Summary of the method: as §1

[3] = tested on: corn; assay: Test C preemergence; assay type: in vivo, Zea mays; conditions: for Corn plant response rating: preemergence; for Plant response rating, Corn: Preemergence
Summary of the method: as §1

[4] = tested on: green foxtail; assay: Test C preemergence; assay type: in vivo, Setaria viridis; conditions: for Foxtail, Green plant response rating: preemergence; for Plant response rating, Foxtail, Green: Preemergence
Summary of the method: as §1

[5] = tested on: kochia; assay: Test C preemergence; assay type: in vivo, Bassia scoparia; conditions: for Kochia plant response rating: preemergence; for Plant response rating, Kochia: Preemergence
Summary of the method: as §1

[6] = tested on: oat, wild; assay: Test C preemergence; assay type: in vivo, Avena fatua; conditions: for Oat, Wild plant response rating: preemergence; for Plant response rating, Oat, Wild: Preemergence
Summary of the method: as §1

[7] = tested on: pigweed, palmer; assay: Test C preemergence; assay type: in vivo, Amaranthus palmeri; conditions: for Pigweed, Palmer plant response rating: preemergence; for Plant response rating, Pigweed, Palmer: Preemergence
Summary of the method: as §1

[8] = tested on: ragweed; assay: Test C preemergence; assay type: in vivo, Ambrosia artemisiifolia; conditions: for Ragweed plant response rating: preemergence; for Plant response rating, Ragweed: Preemergence
Summary of the method: as §1

[9] = tested on: ryegrass, Italian; assay: Test C preemergence; assay type: in vivo, Lolium multiflorum; conditions: for Ryegrass, Italian plant response rating: preemergence; for Plant response rating, Ryegrass, Italian: Preemergence
Summary of the method: as §1

[10] = tested on: soybean; assay: Test C preemergence; assay type: in vivo, Glycine max; conditions: for Soybean plant response rating: preemergence; for Plant response rating, Soybean: Preemergence
Summary of the method: as §1

[11] = tested on: wheat; assay: Test C preemergence; assay type: in vivo, Triticum aestivum; conditions: for Wheat plant response rating: preemergence; for Plant response rating, Wheat: Preemergence
Summary of the method: as §1

[12] = tested on: barnyardgrass; assay: Test C postemergence; assay type: in vivo, Echinochloa crusgalli; conditions: 10 days
Summary of the method: as §1

[13] = tested on: blackgrass; assay: Test C postemergence; assay type: in vivo, Alopecurus myosuroides; conditions: 10 days
Summary of the method: as §1

[14] = tested on: corn; assay: Test C postemergence; assay type: in vivo, Zea mays; conditions: 10 days
Summary of the method: as §1

[15] = tested on: green foxtail; assay: Test C postemergence; assay type: in vivo, Setaria viridis; conditions: 10 days
Summary of the method: as §1

[16] = tested on: kochia; assay: Test C postemergence; assay type: in vivo, Bassia scoparia; conditions: 10 days
Summary of the method: as §1

[17] = tested on: oat, wild; assay: Test C postemergence; assay type: in vivo, Avena fatua; conditions: 10 days
Summary of the method: as §1

[18] = tested on: pigweed, palmer; assay: Test C postemergence; assay type: in vivo, Amaranthus palmeri; conditions: 10 days
Summary of the method: as §1

[19] = tested on: ragweed; assay: Test C postemergence; assay type: in vivo, Ambrosia artemisiifolia; conditions: 10 days
Summary of the method: as §1

[20] = tested on: ryegrass, Italian; assay: Test C postemergence; assay type: in vivo, Lolium multiflorum; conditions: 10 days
Summary of the method: as §1

[21] = tested on: soybean; assay: Test C postemergence; assay type: in vivo, Glycine max; conditions: 10 days
Summary of the method: as §1

[22] = tested on: wheat; assay: Test C postemergence; assay type: in vivo, Triticum aestivum; conditions: 10 days
Summary of the method: as §1

[23] = tested on: galium; assay: Test C postemergence; assay type: in vivo, Galium aparine; conditions: 10 days
Summary of the method: as §1

[24] = tested on: horseweed; assay: Test C postemergence; assay type: in vivo, Erigeron canadensis; conditions: 10 days
Summary of the method: as §1

[25] = tested on: barnyardgrass; assay: Test D flooded paddy test; assay type: in vivo, Echinochloa crus-galli; conditions: 250 g ai/ha, applied to paddy water, visual rating after 13 to 14 days, scale 0 to 100 (0 no effect, 100 complete control)
Summary of the method: (§2)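 At the 2-leaf stage, floodwater 3 cm deep received the test compound; that depth persisted throughout. Plants scored visually 13 to 14 days on, 0 (no effect) to 100 (complete control), dash indicating no result.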

[26] = tested on: ducksalad; assay: Test D flooded paddy test; assay type: in vivo, Heteranthera limosa; conditions: 250 g ai/ha, applied to paddy water, visual rating after 13 to 14 days, scale 0 to 100 (0 no effect, 100 complete control)
Summary of the method: as §2

[27] = tested on: rice; assay: Test D flooded paddy test; assay type: in vivo, Oryza sativa; conditions: 250 g ai/ha, applied to paddy water, visual rating after 13 to 14 days, scale 0 to 100 (0 no effect, 100 complete control)
Summary of the method: as §2

[28] = tested on: sedge, umbrella; assay: Test D flooded paddy test; assay type: in vivo, Cyperus difformis; conditions: 250 g ai/ha, applied to paddy water, visual rating after 13 to 14 days, scale 0 to 100 (0 no effect, 100 complete control)
Summary of the method: as §2

[29] = 500 g ai/ha, 0 to 100 scale (0 no effect, 100 complete control)
[30] = 125 g ai/ha, 0 to 100 scale, 0 no effect, 100 complete control
[31] = 500 g ai/ha, postemergence, 0 to 100 scale (0 no effect, 100 complete control)
[32] = Postemergence, 125 g ai/ha, 0 to 100 scale (0 no effect, 100 complete control)
[33] = 500 g ai/ha, visual rating after 10 days, 0 to 100 scale (0 no effect, 100 complete control)
[34] = Test C, 125 g ai/ha, 0 to 100 scale (0 no effect, 100 complete control)
[35] = 125 g ai/ha, postemergence, 0 to 100 scale, 0 no effect, 100 complete control
[36] = Postemergence, 500 g ai/ha, visual 0 to 100 scale (0 no effect, 100 complete control)

SMILES: Cc1ccc(-n2cnc(CS(C)(=N)=O)n2)cc1C(=O)N1C[C@H](C)Oc2c(Cl)cccc21 (stereo partly drawn) [Compound 403]
- Barnyardgrass plant response rating [1, 29]: 70
- Plant response rating, Barnyardgrass [1, 30]: 40
- Blackgrass plant response rating [2, 29]: 80
- Plant response rating, Blackgrass [2, 30]: 60
- Corn plant response rating [3, 29]: 50
- Plant response rating, Corn [3, 30]: 10
- Foxtail, Green plant response rating [4, 29]: 100
- Plant response rating, Foxtail, Green [4, 30]: 90
- Kochia plant response rating [5, 29]: 100
- Plant response rating, Kochia [5, 30]: 60
- Oat, Wild plant response rating [6, 29]: 40
- Plant response rating, Oat, Wild [6, 30]: 0
- Pigweed, Palmer plant response rating [7, 29]: 100
- Plant response rating, Pigweed, Palmer [7, 30]: 30
- Ragweed plant response rating [8, 29]: 80
- Plant response rating, Ragweed [8, 30]: 30
- Ryegrass, Italian plant response rating [9, 29]: 90
- Plant response rating, Ryegrass, Italian [9, 30]: 40
- Soybean plant response rating [10, 29]: 90
- Plant response rating, Soybean [10, 30]: 80
- Wheat plant response rating [11, 29]: 50
- Plant response rating, Wheat [11, 30]: 0
- Plant response rating, Barnyardgrass [12, 31]: 70
- Plant response rating, Barnyardgrass [12, 32]: 30
- Plant response rating, Blackgrass [13, 31]: 80
- Plant response rating, Blackgrass [13, 32]: 20
- Plant response rating, Corn [14, 31]: 80
- Plant response rating, Corn [14, 32]: 20
- Plant response rating, Foxtail, Green [15, 31]: 90
- Plant response rating, Foxtail, Green [15, 32]: 50
- Plant response rating, Kochia [16, 31]: 80
- Plant response rating, Kochia [16, 32]: 80
- Plant response rating, Oat, Wild [17, 31]: 90
- Plant response rating, Oat, Wild [17, 32]: 30
- Plant response rating, Pigweed, Palmer [18, 31]: 100
- Plant response rating, Pigweed, Palmer [18, 32]: 90
- Plant response rating, Ragweed [19, 32]: 70
- Plant response rating, Ryegrass, Italian [20, 32]: 50
- Plant response rating, Soybean [21, 32]: 100
- Plant response rating, Wheat [22, 32]: 20
- Plant response rating, Galium [23, 31]: 100
- Plant response rating, Galium [23, 32]: 100
- Plant response rating, Horseweed [24, 31]: 60
- Plant response rating, Barnyardgrass (Flood) [25]: 0
- Plant response rating, Ducksalad (Flood) [26]: 50
- Plant response rating, Rice (Flood) [27]: 0
- Plant response rating, Sedge, Umbrella (Flood) [28]: 45

SMILES: CCc1ccc(-n2cnc(C(C)(C)O)n2)cc1C(=O)N1C[C@H](C)Oc2c(C)cccc21 [Compound 279]
- Plant response rating, Barnyardgrass [1, 33]: 100
- Barnyardgrass plant response rating [1, 34]: 90
- Plant response rating, Blackgrass [2, 33]: 90
- Blackgrass plant response rating [2, 34]: 70
- Corn plant response rating [3, 29]: 80
- Corn plant response rating [3, 34]: 50
- Foxtail, Green plant response rating [4, 29]: 100
- Foxtail, Green plant response rating [4, 34]: 100
- Kochia plant response rating [5, 29]: 90
- Kochia plant response rating [5, 34]: 70
- Oat, Wild plant response rating [6, 29]: 90
- Oat, Wild plant response rating [6, 34]: 80
- Pigweed, Palmer plant response rating [7, 29]: 100
- Pigweed, Palmer plant response rating [7, 34]: 100
- Ragweed plant response rating [8, 29]: 90
- Ragweed plant response rating [8, 34]: 70
- Ryegrass, Italian plant response rating [9, 29]: 90
- Ryegrass, Italian plant response rating [9, 34]: 90
- Soybean plant response rating [10, 29]: 100
- Soybean plant response rating [10, 34]: 90
- Wheat plant response rating [11, 29]: 90
- Wheat plant response rating [11, 34]: 60
- Plant response rating, Barnyardgrass [12, 35]: 90
- Plant response rating, Barnyardgrass [12, 36]: 100
- Plant response rating, Blackgrass [13, 35]: 80
- Plant response rating, Blackgrass [13, 36]: 90
- Plant response rating, Corn [14, 35]: 90
- Plant response rating, Corn [14, 36]: 90
- Plant response rating, Foxtail, Green [15, 35]: 90
- Plant response rating, Foxtail, Green [15, 36]: 90
- Plant response rating, Kochia [16, 35]: 20
- Plant response rating, Oat, Wild [17, 35]: 80
- Plant response rating, Pigweed, Palmer [18, 35]: 70
- Plant response rating, Ragweed [19, 35]: 50
- Plant response rating, Ryegrass, Italian [20, 35]: 90
- Plant response rating, Soybean [21, 35]: 100
- Plant response rating, Wheat [22, 35]: 80
- Plant response rating, Galium [23, 35]: 100
- Plant response rating, Galium [23, 36]: 100
- Plant response rating, Horseweed [24, 35]: 0
- Plant response rating, Horseweed [24, 36]: 20
- Plant response rating, Barnyardgrass (Flood) [25]: 60
- Plant response rating, Ducksalad (Flood) [26]: 100
- Plant response rating, Rice (Flood) [27]: 35
- Plant response rating, Sedge, Umbrella (Flood) [28]: 100

SMILES: CC(C)c1ncn(-c2cc3c(c(C(=O)N4C[C@H](C)Oc5c(Cl)cccc54)c2)CCC3)n1 [Compound 174]
- Plant response rating, Barnyardgrass [1, 33]: 100
- Barnyardgrass plant response rating [1, 34]: 80
- Plant response rating, Blackgrass [2, 33]: 80
- Blackgrass plant response rating [2, 34]: 70
- Plant response rating, Corn [3, 33]: 50
- Corn plant response rating [3, 34]: 10
- Plant response rating, Foxtail, Green [4, 33]: 100
- Foxtail, Green plant response rating [4, 34]: 100
- Plant response rating, Kochia [5, 33]: 90
- Kochia plant response rating [5, 34]: 70
- Plant response rating, Oat, Wild [6, 33]: 80
- Oat, Wild plant response rating [6, 34]: 20
- Plant response rating, Pigweed, Palmer [7, 33]: 100
- Pigweed, Palmer plant response rating [7, 34]: 100
- Plant response rating, Ragweed [8, 33]: 10
- Ragweed plant response rating [8, 34]: 0
- Plant response rating, Ryegrass, Italian [9, 33]: 90
- Ryegrass, Italian plant response rating [9, 34]: 80
- Plant response rating, Soybean [10, 33]: 100
- Soybean plant response rating [10, 34]: 70
- Plant response rating, Wheat [11, 33]: 10
- Wheat plant response rating [11, 34]: 0
- Plant response rating, Barnyardgrass [12, 35]: 50
- Plant response rating, Barnyardgrass [12, 36]: 60
- Plant response rating, Blackgrass [13, 35]: 60
- Plant response rating, Blackgrass [13, 36]: 90
- Plant response rating, Corn [14, 35]: 70
- Plant response rating, Corn [14, 36]: 80
- Plant response rating, Foxtail, Green [15, 35]: 70
- Plant response rating, Foxtail, Green [15, 36]: 90
- Plant response rating, Kochia [16, 35]: 90
- Plant response rating, Kochia [16, 36]: 100
- Plant response rating, Oat, Wild [17, 35]: 50
- Plant response rating, Oat, Wild [17, 36]: 70
- Plant response rating, Pigweed, Palmer [18, 35]: 90
- Plant response rating, Pigweed, Palmer [18, 36]: 100
- Plant response rating, Ragweed [19, 35]: 60
- Plant response rating, Ragweed [19, 36]: 70
- Plant response rating, Ryegrass, Italian [20, 35]: 50
- Plant response rating, Ryegrass, Italian [20, 36]: 70
- Plant response rating, Soybean [21, 35]: 100
- Plant response rating, Soybean [21, 36]: 100
- Plant response rating, Wheat [22, 35]: 20
- Plant response rating, Wheat [22, 36]: 40
- Plant response rating, Galium [23, 35]: 100
- Plant response rating, Galium [23, 36]: 100
- Plant response rating, Horseweed [24, 35]: 0
- Plant response rating, Horseweed [24, 36]: 30
- Plant response rating, Barnyardgrass (Flood) [25]: 0
- Plant response rating, Ducksalad (Flood) [26]: 0
- Plant response rating, Rice (Flood) [27]: 0
- Plant response rating, Sedge, Umbrella (Flood) [28]: 0
